PMC5851869 (Bioorganic & medicinal chemistry letters, 2018)

tested on: P. aeruginosa; test: not given; type: cell-based, Pseudomonas aeruginosa; conditions: statement covers both MIC50 and biofilm formation assays

| SMILES | anti-bacterial effect (in words) |
| --- | --- |
| O=C(O)CCN1C(=O)/C(=C\c2ccc(-c3ccccc3)cc2)SC1=S [compound 18] | poor anti-bacterial effects |
| O=C(O)CCN1C(=O)/C(=C\c2ccc(-c3cccc(O)c3)o2)SC1=S [compound 27] | poor anti-bacterial effects |
| CN(C)CCN1C(=O)/C(=C\c2ccc(-c3ccccc3)cc2)SC1=S [compound 31] | did not have significant antibacterial activity |
| O=C(O)CCN1C(=O)/C(=C/c2cccc(Nc3ccccc3)c2)SC1=S [compound 21] | poor anti-bacterial effects |
| NCCN1C(=O)/C(=C/c2ccc(-c3ccccc3)cc2)SC1=S [compound 30] | did not have significant antibacterial activity |

biological target: pa-HemO (Pseudomonas aeruginosa, UniProt O69002); test: fluorescence quenching assay; type: binding; conditions: not given

| SMILES | Kd [nM] |
| --- | --- |
| O=C(O)CCN1C(=O)/C(=C\c2ccc(-c3cccc(O)c3)o2)SC1=S [compound 27] | ~1000 |
| O=C(O)CCN1C(=O)/C(=C/c2cccc(Nc3ccccc3)c2)SC1=S [compound 21] | ~1000 |

same assay, conditions: ratio of KD values relative to inhibitor 2

| SMILES | fold improvement in potency/affinity compared to compound 2 |
| --- | --- |
| COc1ccc(/C=C2\SC(=S)N(CCC(=O)O)C2=O)cc1 [compound 9] | ~ 2 fold |
| O=C1/C(=C/c2ccccn2)SC(=S)N1CCc1nnn[nH]1 [compound 3] | ~2 fold |
| COc1cccc(/C=C2\SC(=S)N(CCC(=O)O)C2=O)c1 [compound 8] | ~ 2 fold |
| O=C(O)CCN1C(=O)/C(=C/c2ccc(Cl)cc2)SC1=S [compound 11] | > 3 fold |
| CC(C)c1ccc(/C=C2\SC(=S)N(CCC(=O)O)C2=O)cc1 [compound 13] | 5 fold |
